A word on the IC50: it is the concentration needed to halve the response being measured. Read a low IC50 as greater potency in that assay.

The target in experiment [1] is T1, 5-hydroxytryptamine receptor 1A (Rattus norvegicus, UniProt P19327).
T1 sequence (P19327 whole entry): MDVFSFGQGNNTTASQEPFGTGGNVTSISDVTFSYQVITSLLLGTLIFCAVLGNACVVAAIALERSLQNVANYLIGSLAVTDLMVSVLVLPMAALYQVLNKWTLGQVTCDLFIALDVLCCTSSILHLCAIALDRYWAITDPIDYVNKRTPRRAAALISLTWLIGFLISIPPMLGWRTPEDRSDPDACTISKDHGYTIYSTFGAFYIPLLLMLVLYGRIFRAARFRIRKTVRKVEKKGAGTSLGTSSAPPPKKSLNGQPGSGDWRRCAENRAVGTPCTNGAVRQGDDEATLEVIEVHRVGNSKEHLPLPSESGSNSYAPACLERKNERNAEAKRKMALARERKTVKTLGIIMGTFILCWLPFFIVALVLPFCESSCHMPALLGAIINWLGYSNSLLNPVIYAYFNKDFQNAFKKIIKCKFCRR
Put plainly: Inhibitory concentration against 5-hydroxytryptamine 1A receptor (Inactive at >1000 nM concentration).

In experiment [2] the target is 5-hydroxytryptamine receptor 2A (Rattus norvegicus, UniProt P14842). Put plainly: Inhibitory concentration against 5-hydroxytryptamine 2A receptor (Inactive at >1000 nM concentration).
5-hydroxytryptamine receptor 2A, sequence (P14842 whole entry): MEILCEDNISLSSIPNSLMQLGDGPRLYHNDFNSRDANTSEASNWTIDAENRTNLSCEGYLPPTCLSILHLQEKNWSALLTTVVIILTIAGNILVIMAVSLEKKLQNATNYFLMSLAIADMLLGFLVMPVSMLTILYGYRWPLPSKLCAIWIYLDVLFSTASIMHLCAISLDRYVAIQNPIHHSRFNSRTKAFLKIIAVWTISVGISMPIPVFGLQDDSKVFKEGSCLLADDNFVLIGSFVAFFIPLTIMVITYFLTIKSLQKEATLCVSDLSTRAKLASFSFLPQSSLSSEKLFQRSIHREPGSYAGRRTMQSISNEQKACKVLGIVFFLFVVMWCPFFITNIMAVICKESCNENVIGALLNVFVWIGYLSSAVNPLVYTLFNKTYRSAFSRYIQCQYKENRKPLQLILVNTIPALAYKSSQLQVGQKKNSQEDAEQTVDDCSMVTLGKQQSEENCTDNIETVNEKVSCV
The target in experiment [3] is T2, Adrenergic receptor alpha-1 (Rattus norvegicus, UniProt P15823+P23944+P43140).
T2 sequence (P15823 whole entry): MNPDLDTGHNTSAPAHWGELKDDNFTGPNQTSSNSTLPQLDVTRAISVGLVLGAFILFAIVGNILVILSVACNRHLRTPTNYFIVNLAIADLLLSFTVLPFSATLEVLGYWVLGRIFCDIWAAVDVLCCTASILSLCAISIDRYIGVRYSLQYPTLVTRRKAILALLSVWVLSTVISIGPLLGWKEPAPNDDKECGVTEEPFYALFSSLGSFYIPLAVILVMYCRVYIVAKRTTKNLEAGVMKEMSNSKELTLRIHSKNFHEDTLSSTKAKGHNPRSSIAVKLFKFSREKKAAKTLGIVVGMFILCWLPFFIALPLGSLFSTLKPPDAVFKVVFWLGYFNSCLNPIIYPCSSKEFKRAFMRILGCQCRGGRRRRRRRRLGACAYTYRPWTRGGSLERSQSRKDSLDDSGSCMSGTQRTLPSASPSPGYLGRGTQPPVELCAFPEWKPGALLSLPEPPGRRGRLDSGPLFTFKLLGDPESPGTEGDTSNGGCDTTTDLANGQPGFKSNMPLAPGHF
T2 sequence (P23944 whole entry): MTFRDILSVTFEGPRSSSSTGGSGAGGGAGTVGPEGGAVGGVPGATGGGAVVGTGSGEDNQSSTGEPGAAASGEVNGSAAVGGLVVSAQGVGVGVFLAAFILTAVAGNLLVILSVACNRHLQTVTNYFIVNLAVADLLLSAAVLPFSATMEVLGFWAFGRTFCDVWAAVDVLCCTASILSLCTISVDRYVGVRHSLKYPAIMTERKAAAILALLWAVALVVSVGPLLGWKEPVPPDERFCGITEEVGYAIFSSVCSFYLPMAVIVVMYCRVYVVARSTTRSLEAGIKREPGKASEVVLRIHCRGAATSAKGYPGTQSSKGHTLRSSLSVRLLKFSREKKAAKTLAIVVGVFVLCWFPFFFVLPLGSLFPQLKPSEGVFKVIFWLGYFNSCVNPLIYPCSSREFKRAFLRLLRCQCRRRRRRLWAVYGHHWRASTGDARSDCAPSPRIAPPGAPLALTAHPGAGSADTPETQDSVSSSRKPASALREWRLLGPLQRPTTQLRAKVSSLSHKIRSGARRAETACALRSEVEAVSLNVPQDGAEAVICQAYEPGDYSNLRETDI
T2 sequence (P43140 whole entry): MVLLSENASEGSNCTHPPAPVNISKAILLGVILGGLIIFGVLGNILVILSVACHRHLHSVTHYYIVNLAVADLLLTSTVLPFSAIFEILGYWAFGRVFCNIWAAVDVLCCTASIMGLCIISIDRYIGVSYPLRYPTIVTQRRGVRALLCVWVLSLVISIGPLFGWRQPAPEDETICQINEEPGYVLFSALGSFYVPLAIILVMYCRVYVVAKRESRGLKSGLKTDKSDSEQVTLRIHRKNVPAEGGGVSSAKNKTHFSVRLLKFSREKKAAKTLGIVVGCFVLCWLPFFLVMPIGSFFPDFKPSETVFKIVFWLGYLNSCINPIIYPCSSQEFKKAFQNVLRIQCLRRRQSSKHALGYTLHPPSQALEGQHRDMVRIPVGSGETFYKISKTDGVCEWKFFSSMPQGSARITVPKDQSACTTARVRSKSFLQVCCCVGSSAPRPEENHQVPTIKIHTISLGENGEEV
Briefly: Inhibition of Alpha-1 adrenergic receptor in rat cortex membrane. The class given is cell membranes.

Experiment [4] concerns the target T3, Adrenergic receptor alpha-2 (Rattus norvegicus, UniProt P22086+P19328+P22909).
T3 sequence (P22086 whole entry): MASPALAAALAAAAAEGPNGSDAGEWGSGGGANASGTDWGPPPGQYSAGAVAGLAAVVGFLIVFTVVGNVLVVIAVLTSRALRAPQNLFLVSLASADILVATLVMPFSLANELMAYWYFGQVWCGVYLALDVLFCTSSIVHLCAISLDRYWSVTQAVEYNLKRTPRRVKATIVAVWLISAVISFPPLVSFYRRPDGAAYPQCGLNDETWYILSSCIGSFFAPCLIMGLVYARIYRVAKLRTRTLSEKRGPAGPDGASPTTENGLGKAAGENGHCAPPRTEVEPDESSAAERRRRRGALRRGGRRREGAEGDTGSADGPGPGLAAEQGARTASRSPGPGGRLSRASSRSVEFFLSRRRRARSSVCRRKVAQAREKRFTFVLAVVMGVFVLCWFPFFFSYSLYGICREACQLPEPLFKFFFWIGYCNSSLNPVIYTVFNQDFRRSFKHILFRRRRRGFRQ
T3 sequence (P19328 whole entry): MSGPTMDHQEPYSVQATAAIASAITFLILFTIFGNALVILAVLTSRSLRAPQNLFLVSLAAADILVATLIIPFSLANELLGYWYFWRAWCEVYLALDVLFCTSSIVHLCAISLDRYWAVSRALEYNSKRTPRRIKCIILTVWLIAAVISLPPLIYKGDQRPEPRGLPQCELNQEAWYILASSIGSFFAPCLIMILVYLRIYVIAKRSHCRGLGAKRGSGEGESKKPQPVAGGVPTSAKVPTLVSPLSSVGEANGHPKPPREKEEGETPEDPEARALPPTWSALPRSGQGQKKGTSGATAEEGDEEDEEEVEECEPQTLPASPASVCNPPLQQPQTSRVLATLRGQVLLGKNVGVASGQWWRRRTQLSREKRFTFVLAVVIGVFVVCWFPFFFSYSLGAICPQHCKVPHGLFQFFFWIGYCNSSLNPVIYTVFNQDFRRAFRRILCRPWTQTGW
T3 sequence (P22909 whole entry): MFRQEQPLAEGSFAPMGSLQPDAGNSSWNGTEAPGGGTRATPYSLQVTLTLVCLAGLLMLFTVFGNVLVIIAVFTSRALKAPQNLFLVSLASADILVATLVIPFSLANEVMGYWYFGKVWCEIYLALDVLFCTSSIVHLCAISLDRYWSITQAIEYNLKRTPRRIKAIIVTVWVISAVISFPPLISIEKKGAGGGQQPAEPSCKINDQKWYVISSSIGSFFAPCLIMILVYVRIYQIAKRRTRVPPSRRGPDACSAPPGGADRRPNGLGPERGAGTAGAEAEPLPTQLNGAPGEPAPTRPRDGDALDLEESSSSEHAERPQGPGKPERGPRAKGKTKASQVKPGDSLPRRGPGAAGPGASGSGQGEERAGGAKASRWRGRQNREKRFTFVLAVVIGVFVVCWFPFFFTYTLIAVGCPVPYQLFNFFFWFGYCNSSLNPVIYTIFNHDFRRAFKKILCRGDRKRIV
Briefly: Inhibitory concentration against Alpha-2 adrenergic receptor. The class given is protein assay.

A further experiment addresses D(2) dopamine receptor (Rattus norvegicus, UniProt P61169). Put plainly: Inhibitory concentration against Dopamine receptor D2 (Inactive at >1000 nM concentration).

D(2) dopamine receptor, sequence (P61169 whole entry): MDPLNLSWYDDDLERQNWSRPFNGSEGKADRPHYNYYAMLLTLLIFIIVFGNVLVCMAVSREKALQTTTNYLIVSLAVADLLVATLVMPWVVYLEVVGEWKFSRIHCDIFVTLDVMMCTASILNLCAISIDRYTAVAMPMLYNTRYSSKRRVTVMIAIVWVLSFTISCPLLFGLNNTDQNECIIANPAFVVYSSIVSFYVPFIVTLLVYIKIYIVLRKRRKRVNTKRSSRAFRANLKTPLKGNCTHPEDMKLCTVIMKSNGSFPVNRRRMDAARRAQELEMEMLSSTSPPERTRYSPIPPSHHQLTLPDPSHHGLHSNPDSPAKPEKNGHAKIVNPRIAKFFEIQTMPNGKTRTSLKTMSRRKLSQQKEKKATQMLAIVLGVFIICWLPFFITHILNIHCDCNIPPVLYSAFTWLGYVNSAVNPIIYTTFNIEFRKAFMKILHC

`COc1cc2nc(N3CCN(C(=O)c4ccccc4)CC3)nc(N)c2cc1OC`: the IC50 in experiment [1] is over 1 µM; in experiment [2], over 1 µM; in experiment [3] it was 0.0046 µM; in experiment [4], over 1 µM; on D(2) dopamine receptor, over 1 µM.

As for `COc1cc2nc(N3CCN(C(=O)C(C)(C)C)CC3)nc(N)c2cc1OC`, the IC50 was over 1 µM in experiment [1]; over 1 µM in experiment [2]; 0.34 µM in experiment [3]; over 1 µM in experiment [4]; over 1 µM at D(2) dopamine receptor.

Regarding `COc1cc2nc(N3CCC(c4ccccc4)(c4ccccc4)CC3)nc(N)c2cc1OC`, the IC50 in experiment [1] was over 1 µM; in experiment [2] it was over 1 µM; in experiment [3] it was 0.259 µM; in experiment [4], over 1 µM; at D(2) dopamine receptor, over 1 µM.

Turning to `COc1cc2nc(N(C)CCC(c3ccccc3)c3ccccc3)nc(N)c2cc1OC`, the IC50 in experiment [1] is over 1 µM; in experiment [2], over 1 µM; in experiment [3], 0.085 µM; in experiment [4] it was over 1 µM; against D(2) dopamine receptor it was over 1 µM.

For the molecule `COc1cc2nc(N[C@H](C)Cc3ccc(OC)c(S(N)(=O)=O)c3)nc(N)c2cc1OC`, the IC50 in experiment [1] was over 1 µM; in experiment [2], over 1 µM; in experiment [3], 3.14 µM; in experiment [4], over 1 µM; against D(2) dopamine receptor, over 1 µM.

For the molecule `COc1cc2nc(N3CC[N+]([O-])(Cc4ccccc4)CC3)nc(N)c2cc1OC`, the IC50 (in experiment [1]; in experiment [2]; in experiment [3]; in experiment [4]; against D(2) dopamine receptor) was over 1 µM throughout.

As for `COc1cc2nc(N3CCN(C(c4ccccc4)c4ccccc4)CC3)nc(N)c2cc1OC`, the IC50 in experiment [1] was over 1 µM; in experiment [2], over 1 µM; in experiment [3], 0.04 µM; in experiment [4], over 1 µM; on D(2) dopamine receptor, over 1 µM.

With `COc1cc2nc(N3CCN(C(C)=O)CC3)nc(N)c2cc1OC`, the IC50 in experiment [1] was over 1 µM; in experiment [2] it was over 1 µM; in experiment [3], 0.045 µM; in experiment [4], over 1 µM; at D(2) dopamine receptor, over 1 µM.

For the molecule `COc1cc2nc(N(C)Cc3ccccc3)nc(N)c2cc1OC`, the concentration for half-maximal inhibition (IC50) in experiment [1] is over 1 µM; in experiment [2], over 1 µM; in experiment [3] it was 0.07 µM; in experiment [4], over 1 µM; against D(2) dopamine receptor, over 1 µM.

As to `COc1cc2nc(N3CCN(C(C)=O)CC3)nc(NC(C)=O)c2cc1OC`, the IC50 is over 1 µM in experiment [1]; over 1 µM in experiment [2]; 5.08 µM in experiment [3]; over 1 µM in experiment [4]; over 1 µM at D(2) dopamine receptor.

For the molecule `COc1cc2nc(N3CCN(C(=O)C(C)(C)Oc4ccccc4OC)CC3)nc(N)c2cc1OC`, the IC50 in experiment [1] is over 1 µM; in experiment [2] it was over 1 µM; in experiment [3], 0.049 µM; in experiment [4] it was over 1 µM; on D(2) dopamine receptor, over 1 µM.

For `COc1cc2nc(N3CCN(OCc4ccccc4)CC3)nc(N)c2cc1OC`, the IC50 in experiment [1] was over 1 µM; in experiment [2], over 1 µM; in experiment [3], 0.111 µM; in experiment [4], over 1 µM; at D(2) dopamine receptor it was over 1 µM.

Turning to `COc1cc2nc(N3CCN(C(=O)C(c4ccccc4)c4ccccc4)CC3)nc(N)c2cc1OC`, the IC50 was over 1 µM in experiment [1]; over 1 µM in experiment [2]; 0.0032 µM in experiment [3]; over 1 µM in experiment [4]; over 1 µM on D(2) dopamine receptor.

As to `COc1cc2nc(N3CCN(Cc4ccccc4)CC3)nc(N)c2cc1OC`, the IC50 was over 1 µM in experiment [1]; over 1 µM in experiment [2]; 0.032 µM in experiment [3]; over 1 µM in experiment [4]; over 1 µM on D(2) dopamine receptor.

For `COc1cc2nc(N3CCc4c(ccc5ccccc45)C3)nc(N)c2cc1OC`, the IC50 in experiment [1] is over 1 µM; in experiment [2], over 1 µM; in experiment [3] it was 0.0016 µM; in experiment [4], over 1 µM; against D(2) dopamine receptor it was over 1 µM.

Turning to `COc1cc2c(cc1OC)CN(c1nc(N)c3cc(OC)c(OC)cc3n1)CC2`, the IC50 in experiment [1] was over 1 µM; in experiment [2], over 1 µM; in experiment [3], 0.0002 µM; in experiment [4] it was over 1 µM; at D(2) dopamine receptor, over 1 µM.

Take `COc1cc2nc(N3CCN(C(=O)C(C)(C)Oc4c(OC)cccc4C(C)C)CC3)nc(N)c2cc1OC`: the half-maximal inhibitory concentration (IC50) in experiment [1] is over 1 µM; in experiment [2], over 1 µM; in experiment [3] it was 1.18 µM; in experiment [4], over 1 µM; against D(2) dopamine receptor, over 1 µM.

Source of the values: ChEMBL document CHEMBL1132568, “Synthesis, pharmacological evaluation, and structure-activity relationship and quantitative structure-activity relationship studies on novel derivatives of 2,4-diamino-6,7-dimethoxyquinazoline alpha1-adrenoceptor antagonists” (J Med Chem, 1999).
